Consider five molecules from the supplement of paper PMC10307832.

The first assay concerns NCI-H460. As to the kind of experiment: relative viability (nuclei count vs DMSO), 5 days (fraction); higher = more cells survive. The conditions noted are these: first compound 0.6325 µM. The gist of the method: (§1)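 Nuclei were stained with Hoechst during a one-step fixation (final 0.05% Triton X-100, 1% formaldehyde, 1 ug/ml Hoechst) carried out 5 days after dosing, then counted on 4× images. The cells, lung cancer lines in 1536-well plates, had been dosed by pin tool the day after seeding with one drug alone or a fixed anchor-drug dose plus five library-drug doses (not always all listed) in √10 steps. Relative viability is the nuclei count in treated wells divided by that in vehicle wells, and each value is the median of duplicate plates.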
For the molecule `COCC1(CO)C(=O)C2CCN1CC2` (stereo unspecified) [PRIMA-1MET] + C[C@]1(O)C[C@@H](c2nc(-c3ccc4ccc(-c5ccccc5)nc4c3)c3c(N)nccn32)C1 [Linsitinib] (partner 1 µM), the relative viability was determined as 0.545.
`COCC1(CO)C(=O)C2CCN1CC2` (stereo unspecified) [PRIMA-1MET] + COc1cc2c(Oc3ccc(NC(=O)C4(C(=O)Nc5ccc(F)cc5)CC4)cc3F)ccnc2cc1OCCCN1CCOCC1 [Foretinib] (partner 0.25 µM) gave a relative viability of 0.949.
`COCC1(CO)C(=O)C2CCN1CC2` (stereo unspecified) [PRIMA-1MET] + Cc1nc(NC(=O)N2CCC[C@H]2C(N)=O)sc1-c1ccnc(C(C)(C)C(F)(F)F)c1 [Alpelisib] (partner 2 µM): the relative viability came out at 0.358.

The assay is the same for the next values; noted with them: first compound 2 µM.
`COCC1(CO)C(=O)C2CCN1CC2` (stereo unspecified) [PRIMA-1MET] + CS(=O)(=O)N1CCN(Cc2cc3nc(-c4cccc5[nH]ncc45)nc(N4CCOCC4)c3s2)CC1 [Pictilisib] (partner 1 µM): the relative viability worked out at 0.23.
Molecule `COCC1(CO)C(=O)C2CCN1CC2` (stereo unspecified) [PRIMA-1MET] + CS(=O)(=O)CCNCc1ccc(-c2ccc3ncnc(Nc4ccc(OCc5cccc(F)c5)c(Cl)c4)c3c2)o1 [Lapatinib] (partner 2 µM) registered a relative viability of 0.893.
As for `COCC1(CO)C(=O)C2CCN1CC2` (stereo unspecified) [PRIMA-1MET] + C[C@]1(O)C[C@@H](c2nc(-c3ccc4ccc(-c5ccccc5)nc4c3)c3c(N)nccn32)C1 [Linsitinib] (partner 1 µM), the relative viability was determined as 0.613.
On the same count and under the same terms, then `COCC1(CO)C(=O)C2CCN1CC2` (stereo unspecified) [PRIMA-1MET] + COc1cc2c(Oc3ccc(NC(=O)C4(C(=O)Nc5ccc(F)cc5)CC4)cc3F)ccnc2cc1OCCCN1CCOCC1 [Foretinib] (partner 0.25 µM), with 0.963.
Still for that read-out and setting: then `COCC1(CO)C(=O)C2CCN1CC2` (stereo unspecified) [PRIMA-1MET] + Cc1nc(NC(=O)N2CCC[C@H]2C(N)=O)sc1-c1ccnc(C(C)(C)C(F)(F)F)c1 [Alpelisib] (partner 2 µM), with 0.411.

Still in this assay, the particulars now being: first compound 6.325 µM.
Regarding `COCC1(CO)C(=O)C2CCN1CC2` (stereo unspecified) [PRIMA-1MET] + CS(=O)(=O)N1CCN(Cc2cc3nc(-c4cccc5[nH]ncc45)nc(N4CCOCC4)c3s2)CC1 [Pictilisib] (partner 1 µM), the relative viability worked out at 0.357.
On the same count and under the same terms, under `COCC1(CO)C(=O)C2CCN1CC2` (stereo unspecified) [PRIMA-1MET] + CS(=O)(=O)CCNCc1ccc(-c2ccc3ncnc(Nc4ccc(OCc5cccc(F)c5)c(Cl)c4)c3c2)o1 [Lapatinib] (partner 2 µM) stands 0.607; under `COCC1(CO)C(=O)C2CCN1CC2` (stereo unspecified) [PRIMA-1MET] + C[C@]1(O)C[C@@H](c2nc(-c3ccc4ccc(-c5ccccc5)nc4c3)c3c(N)nccn32)C1 [Linsitinib] (partner 1 µM), 0.0073; under `COCC1(CO)C(=O)C2CCN1CC2` (stereo unspecified) [PRIMA-1MET] + COc1cc2c(Oc3ccc(NC(=O)C4(C(=O)Nc5ccc(F)cc5)CC4)cc3F)ccnc2cc1OCCCN1CCOCC1 [Foretinib] (partner 0.25 µM), 0.944.
Regarding `COCC1(CO)C(=O)C2CCN1CC2` (stereo unspecified) [PRIMA-1MET] + Cc1nc(NC(=O)N2CCC[C@H]2C(N)=O)sc1-c1ccnc(C(C)(C)C(F)(F)F)c1 [Alpelisib] (partner 2 µM), the relative viability was 0.0066.

The assay is the same for the next values; noted with them: first compound 20 µM.
`COCC1(CO)C(=O)C2CCN1CC2` (stereo unspecified) [PRIMA-1MET] + CS(=O)(=O)N1CCN(Cc2cc3nc(-c4cccc5[nH]ncc45)nc(N4CCOCC4)c3s2)CC1 [Pictilisib] (partner 1 µM) yielded a relative viability of 0.197.
As for `COCC1(CO)C(=O)C2CCN1CC2` (stereo unspecified) [PRIMA-1MET] + CS(=O)(=O)CCNCc1ccc(-c2ccc3ncnc(Nc4ccc(OCc5cccc(F)c5)c(Cl)c4)c3c2)o1 [Lapatinib] (partner 2 µM), the relative viability came to 0.0047.
Same read-out and setting: under `COCC1(CO)C(=O)C2CCN1CC2` (stereo unspecified) [PRIMA-1MET] + C[C@]1(O)C[C@@H](c2nc(-c3ccc4ccc(-c5ccccc5)nc4c3)c3c(N)nccn32)C1 [Linsitinib] (partner 1 µM) stands 0.0038; under `COCC1(CO)C(=O)C2CCN1CC2` (stereo unspecified) [PRIMA-1MET] + COc1cc2c(Oc3ccc(NC(=O)C4(C(=O)Nc5ccc(F)cc5)CC4)cc3F)ccnc2cc1OCCCN1CCOCC1 [Foretinib] (partner 0.25 µM), 0.359; under `COCC1(CO)C(=O)C2CCN1CC2` (stereo unspecified) [PRIMA-1MET] + Cc1nc(NC(=O)N2CCC[C@H]2C(N)=O)sc1-c1ccnc(C(C)(C)C(F)(F)F)c1 [Alpelisib] (partner 2 µM), 0.0038.

Another assay concerns NCI-H520. The description is as above. Particulars: first compound 0.2 µM. A digest of the protocol:
as §1
`COCC1(CO)C(=O)C2CCN1CC2` (stereo unspecified) [PRIMA-1MET] + CS(=O)(=O)N1CCN(Cc2cc3nc(-c4cccc5[nH]ncc45)nc(N4CCOCC4)c3s2)CC1 [Pictilisib] (partner 1 µM) returned a relative viability of 0.345.
On the same count and under the same terms, then `COCC1(CO)C(=O)C2CCN1CC2` (stereo unspecified) [PRIMA-1MET] + CS(=O)(=O)CCNCc1ccc(-c2ccc3ncnc(Nc4ccc(OCc5cccc(F)c5)c(Cl)c4)c3c2)o1 [Lapatinib] (partner 2 µM), with 0.792; and `COCC1(CO)C(=O)C2CCN1CC2` (stereo unspecified) [PRIMA-1MET] + C[C@]1(O)C[C@@H](c2nc(-c3ccc4ccc(-c5ccccc5)nc4c3)c3c(N)nccn32)C1 [Linsitinib] (partner 1 µM), with 1.05; and `COCC1(CO)C(=O)C2CCN1CC2` (stereo unspecified) [PRIMA-1MET] + COc1cc2c(Oc3ccc(NC(=O)C4(C(=O)Nc5ccc(F)cc5)CC4)cc3F)ccnc2cc1OCCCN1CCOCC1 [Foretinib] (partner 0.25 µM), with 0.794.
Still for that read-out and setting: then `COCC1(CO)C(=O)C2CCN1CC2` (stereo unspecified) [PRIMA-1MET] + Cc1nc(NC(=O)N2CCC[C@H]2C(N)=O)sc1-c1ccnc(C(C)(C)C(F)(F)F)c1 [Alpelisib] (partner 2 µM), with 1.21.

The same assay, now with this note: first compound 0.6325 µM.
In turn, `COCC1(CO)C(=O)C2CCN1CC2` (stereo unspecified) [PRIMA-1MET] + CS(=O)(=O)N1CCN(Cc2cc3nc(-c4cccc5[nH]ncc45)nc(N4CCOCC4)c3s2)CC1 [Pictilisib] (partner 1 µM) registered a relative viability of 0.285.
The same measure, in the same setting: then `COCC1(CO)C(=O)C2CCN1CC2` (stereo unspecified) [PRIMA-1MET] + CS(=O)(=O)CCNCc1ccc(-c2ccc3ncnc(Nc4ccc(OCc5cccc(F)c5)c(Cl)c4)c3c2)o1 [Lapatinib] (partner 2 µM), with 0.987; and `COCC1(CO)C(=O)C2CCN1CC2` (stereo unspecified) [PRIMA-1MET] + C[C@]1(O)C[C@@H](c2nc(-c3ccc4ccc(-c5ccccc5)nc4c3)c3c(N)nccn32)C1 [Linsitinib] (partner 1 µM), with 1.
On the same count and under the same terms, under `COCC1(CO)C(=O)C2CCN1CC2` (stereo unspecified) [PRIMA-1MET] + COc1cc2c(Oc3ccc(NC(=O)C4(C(=O)Nc5ccc(F)cc5)CC4)cc3F)ccnc2cc1OCCCN1CCOCC1 [Foretinib] (partner 0.25 µM) stands 0.62; under `COCC1(CO)C(=O)C2CCN1CC2` (stereo unspecified) [PRIMA-1MET] + Cc1nc(NC(=O)N2CCC[C@H]2C(N)=O)sc1-c1ccnc(C(C)(C)C(F)(F)F)c1 [Alpelisib] (partner 2 µM), 0.84.

The same assay, now with this note: first compound 2 µM.
In turn, `COCC1(CO)C(=O)C2CCN1CC2` (stereo unspecified) [PRIMA-1MET] + COc1cc2c(Oc3ccc(NC(=O)C4(C(=O)Nc5ccc(F)cc5)CC4)cc3F)ccnc2cc1OCCCN1CCOCC1 [Foretinib] (partner 0.25 µM) had a relative viability of 0.669.

Still in this assay, the particulars now being: first compound 6.325 µM.
Take `COCC1(CO)C(=O)C2CCN1CC2` (stereo unspecified) [PRIMA-1MET] + CS(=O)(=O)N1CCN(Cc2cc3nc(-c4cccc5[nH]ncc45)nc(N4CCOCC4)c3s2)CC1 [Pictilisib] (partner 1 µM): the relative viability turned out to be 0.368.
Same read-out and setting: then `COCC1(CO)C(=O)C2CCN1CC2` (stereo unspecified) [PRIMA-1MET] + CS(=O)(=O)CCNCc1ccc(-c2ccc3ncnc(Nc4ccc(OCc5cccc(F)c5)c(Cl)c4)c3c2)o1 [Lapatinib] (partner 2 µM), with 0.828.
